Data on three compounds can be found in patent publication US20110110879A1, “Compositions and Methods for Enhancing Eyelashes” (Avon Products, Inc., priority 2009, published 2011).

The test system of one assay is keratin 5. The experiment in a line: In vitro assay for keratin 5 production in keratinocytes. The assay is classed as cell-based. As to conditions: concentration of 0.01%.
For the next assay, the target named is MMP-3 (Homo sapiens, UniProt P08254). The experiment in a line: In vitro assay of MMP-3 enzymatic activity. The assay is classed as biochemical. As to conditions: concentration of 2×10^−7%.
The test system of another assay is collagen IV. To be noted: fibroblasts; concentrations of 2×10^−5% and 2×10^−6%.
A further assay deals with elastin. To be noted: fibroblasts; concentrations of 2×10^−5% and 2×10^−6%.
The test system of a further assay is fibronectin. As to conditions: fibroblasts; concentrations of 2×10^−5% and 2×10^−6%.
The subject of assay [1] is lipid peroxidation in keratinocytes. Kind of assay: In vitro assay of lipid peroxidation in keratinocytes. As to conditions: concentration of 0.001%. Format: cell-based.

Sequence of MMP-3 (P08254 100-477, species assumed): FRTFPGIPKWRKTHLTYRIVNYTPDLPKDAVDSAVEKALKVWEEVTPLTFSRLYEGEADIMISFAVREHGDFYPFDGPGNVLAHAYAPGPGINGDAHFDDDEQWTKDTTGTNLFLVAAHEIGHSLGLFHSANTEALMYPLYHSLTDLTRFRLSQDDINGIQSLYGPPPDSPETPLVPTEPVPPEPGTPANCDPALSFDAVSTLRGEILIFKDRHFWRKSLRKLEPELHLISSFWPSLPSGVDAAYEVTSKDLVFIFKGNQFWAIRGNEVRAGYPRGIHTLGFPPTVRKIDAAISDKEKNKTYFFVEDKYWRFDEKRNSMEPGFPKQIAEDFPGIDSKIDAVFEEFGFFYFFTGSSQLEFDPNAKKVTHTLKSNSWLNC

With `CN(CC(=O)O)C(=N)N` [creatine], in the assay with keratin 5, the “keratin 5 production” value is on record as “can increase keratin 5 production”.

As for N-biotinyl-gly-his-lys, the “enzymatic activity of MMP-3” value at MMP-3 is reported as “can decrease enzymatic activity”. In addition, in the assay with collagen IV, the “production of collagen IV” value was “can increase production”. For the same compound, the production of elastin entry in the assay on elastin is reported as “can increase production”. Besides, the production of fibronectin result in the assay with fibronectin is given as “can increase production”.

On to `CC(=O)Oc1c(C)c(C)c2c(c1C)CCC(C)(CCC[C@H](C)CCC[C@H](C)CCCC(C)C)O2` (stereo partly drawn) [tocopherol acetate], for which the lipid peroxidation result in assay [1] is “can inhibit lipid peroxidation”.
